What was measured:
Format in all cases: in vivo, human
[1] = Plasma pharmacokinetics of unchanged rucaparib (LC-MS/MS) after a single oral dose of [14C]-rucaparib 600 mg
Description: Six patients received a single oral dose of [^14C]-rucaparib 600 mg (approximately 5.18 MBq or 140 μCi) on day 1 after fasting for 10 h and were confined at the study site for the collection of blood samples and excreta for a maximum of 12 days.
Blood samples were collected in K2 ethylenediaminetetraacetic acid (K2-EDTA) tubes at the following time points: 0 (predose), 1, 2, 3, 4, 8, 12, 24, 48, 72, 96, 120, and 144 h after administration. Blood samples were taken via an indwelling intravenous catheter or by direct vein puncture into appropriate tubes. Aliquots of blood samples were centrifuged at 1600–2000×g for 10 min at 4 °C, and supernatants were collected for plasma samples. All plasma and blood samples were stored at −70 °C until analysis. Plasma and blood samples were evaluated for total radioactivity (TRA) by liquid scintillation (LSC), parent drug concentrations by liquid chromatography (LC) with tandem mass spectrometry (MS/MS) analyses, and metabolite profiling by LC coupled to diode array ultraviolet (UV) detection and MS or radioactivity detection.
Plasma concentrations of rucaparib were determined by Q^2 Solutions (Ithaca, NY, USA) using a validated LC-MS/MS method as previously described. The concentration range for quantitation was 5–10,000 ng/mL.
Blood and plasma TRA data and the plasma concentration of rucaparib were used to determine the Cmax, tmax, AUC from time zero to time of last measurable concentration (AUC0-t), and AUC from time zero to infinity (AUC0-inf), apparent volume of distribution (Vd/F), apparent clearance (CL/F), and terminal half-life (t1/2). Phoenix WinNonlin software version 6.3 or higher (Certara, Princeton, NJ, USA) was used to run a noncompartmental method analysis on the PK data.

[2] = Safety assessment (CTCAE v4.03 adverse events)
Description: The safety of rucaparib was evaluated during the study. The National Cancer Institute Common Terminology Criteria for Adverse Events (CTCAE) grading system (version 4.03) was used to describe the severity of the adverse events (AEs) that occurred. Clinical laboratory, vital sign, 12-lead ECG, and physical examinations were also part of the safety assessment.

[3] = Metabolite profiling in pooled feces (LC-MS-Radiomatic); conditions: for % Dose in feces: pooled fecal homogenate, % of administered dose
Description: For each patient, homogenized feces samples from different collection intervals were pooled in proportion to their sample weight in order to obtain a pooled sample covering 90% of the TRA recovered in feces. Aliquots of the pooled fecal samples were extracted at least twice with acetonitrile. The obtained supernatant was evaporated. The dried residues were reconstituted in 40% DMSO in water to obtain maximum recovery. An aliquot of the supernatant was analyzed for TRA to determine extraction efficiency, and the mean recovery was ≈75%. Aliquots of the supernatants were injected into the HPLC coupled to UV and radioactive detectors to obtain metabolite profiles. The sample supernatants were also analyzed using LC-MS to identify metabolites.
(§1) Metabolite profiling and identification were performed on an LC system (Agilent) coupled to an LTQ Orbitrap mass spectrometer (Thermo Electron, Waltham, MA, USA) in combination with offline TopCount (LC-MS-TopCount) or online Radiomatic 625TR (LC-MS-Radiomatic; PerkinElmer). Proposed structures of the metabolites were based on accurate mass (<5 ppm) and comparison of mass spectral data of parent compound rucaparib and metabolite standard M324. The Radiomatic 625TR flow detector, equipped with a 200 μL flow cell, was operated using scintillation cocktail (Ultima-Flo M) delivered at a flow rate of 1 mL/min. Chromatography was done using a Phenomenex (Torrance, CA, USA) Luna Phenyl-Hexyl column (250 × 2 mm, 5 μm, 100 Å) at ambient temperature during the sample analysis. The mobile phase was (A) 0.05% TFA in water and (B) 0.05% TFA in acetonitrile, with a 0.2 mL/min flow rate. The gradient was as follows: 5% B over 2.1 min, to 20% B in 1.0 min, to 35% B in 16.9 min, isocratic at 35% B for 5 min, to 95% B over 5 min, and reduced to 5% B over 1 min, with total run time 45 min.
The abundance of unchanged rucaparib and metabolites identified in plasma, urine, and feces was determined as a percentage of the TRA in the analyzed samples. Percentage of the administered dose of rucaparib and metabolites was calculated in urine and feces (formula A). The concentration of rucaparib and its metabolites in plasma (ng Eq h/mL) was calculated based on the specific activity, TRA, and percentage of peaks (formula B). The AUC0-24h value of rucaparib and its major metabolite M324 in plasma was calculated using both Hamilton method (formula C) and linear trapezoidal method (formula D). • (A) %Doseofmetabolite=TRAinurineorfeces(dpm)÷TRAinadministereddose(dpm)×%metabolitesinmatrix • (B) Metaboliteconcentrationsinplasma(ngEq/mL)=TRAinplasma(dpm/mL)specificactivity(ngEq/dpm)×%metabolitesinthematrix • (C) Hamiltonmethod:AUC0−24h(ngEqh/mL)=concentrationinHamilton(AUC0−24h)pooledplasma(ngEq/mL)×24(h) • (D) Lineartrapezoidalmethod:AUC0−24h(ngEqh/mL)=C1h/2×1h+C1h+C4h/2×(4h−1h)+C4h+C8h/2×(8h−4h)+C8h+C24h/2×(24h−8h)

[4] = Metabolite identification by LC-MS/MS in plasma, urine and feces; conditions: F feces, P plasma, U urine
Description: as §1
The LTQ Orbitrap mass spectrometer was equipped with an electrospray ionization interface and operated in positive ionization mode for metabolite profiling and identification. Mass spectra were acquired in full scan (MS) (m/z 150–1500) and data-dependent scan modes. Mass spectrometer parameter settings were: spray voltage, +5.0 kV; capillary temperature, 350 °C; sheath gas, 80 (arbitrary unit); auxiliary gas, 30 (arbitrary unit); activation Q, 0.25; activation time, 30 msec; resolution, 7500; and collision energy, 35 eV.
The structures of the metabolites were identified by LC-MS/MS based on comparisons of mass spectral fragmentation patterns with those produced by the parent compound. Further confirmation of the identities of the metabolites was based on the elemental composition determined from accurate mass analyses using an Orbitrap high-resolution mass spectrometer.
The structures of the major metabolites found in plasma, urine, and feces were also confirmed by comparisons with the synthetic reference standard M324.

[5] = unchanged rucaparib by LC-MS/MS, single oral 600 mg, N = 6, mean ± SD

CNCc1ccc(-c2[nH]c3cc(F)cc4c3c2CCNC4=O)cc1 [Rucaparib, rucaparib]
AUC0-24h ratio of unlabeled rucaparib to TRA in plasma ([1]; LC-MS/MS versus LSC): 0.412 | AUC(0-inf) ([1]; human, plasma, unchanged rucaparib by LC-MS/MS, single oral 600 mg, N = 6, mean ± SD, read-out: AUC0-inf, rucaparib concentration in plasma): 9340 ± 3480 ng·h/mL | AUC(0-t) ([1]; human, plasma, unchanged rucaparib by LC-MS/MS, single oral 600 mg, N = 6, mean ± SD, read-out: AUC0-t, rucaparib concentration in plasma): 8950 ± 3230 ng·h/mL | Cmax ([1]; human, plasma, unchanged rucaparib by LC-MS/MS, single oral 600 mg, N = 6, mean ± SD, read-out: Cmax, rucaparib concentration in plasma): 428 ± 154 ng/mL | Vd/F ([1]; human, plasma, unchanged rucaparib by LC-MS/MS, single oral 600 mg, N = 6, mean ± SD, read-out: Vd/F, rucaparib concentration in plasma): 2300 ± 490 L | AUC0-24h/AUC0-inf ratio, plasma unchanged rucaparib ([1]; in vivo): 0.537 | Mean CL/F of rucaparib relative to that of TRA ([1]; plasma): approximately 3.8 fold | Mean Vd/F of rucaparib relative to that of TRA ([1]; plasma): ~2.8 fold | CL/F, rucaparib concentration in plasma [1, 5]: 73.9 ± 45.5 L/h | t1/2, rucaparib concentration in plasma [1, 5]: 25.9 ± 10.1 h | t1/2, rucaparib concentration in plasma ([1]; unchanged rucaparib by LC-MS/MS, single oral 600 mg, N = 6, mean ± SD, listed as rucaparib): > 25 h | tmax, rucaparib concentration in plasma ([1]; unchanged rucaparib by LC-MS/MS, single oral 600 mg, N = 6, median (range)): 4 (0.933–8.00) h | Total treatment-emergent AEs (TEAEs) ([2]; events, in four of six patients, single oral 600 mg): five | Relation, severity and seriousness of TEAEs ([2]; investigator assessment): No TEAE was considered to be related to the study drug by the investigators, had a severity of more than CTCAE grade 2, led to a withdrawal of the patient, or was a serious AE | Patients with TEAE vomiting ([2]; two events in two of six patients): 33.3% | % of dose in pooled fecal homogenate, Patient 01 ([3]; Patient 01): 50.6 % dose | % of dose in pooled fecal homogenate, Patient 05 ([3]; Patient 05): 55.8 % dose | % of dose in pooled fecal homogenate, Patient 06 ([3]; Patient 06): 70.1 % dose | % of dose in pooled fecal homogenate, Patient 08 ([3]; Patient 08): 68.2 % dose | % of dose in pooled fecal homogenate, Patient 09 ([3]; Patient 09): 71.8 % dose | % Peak (of TRA) in feces ([3]; pooled fecal homogenate covering >90% of fecal excretion, N = 6, mean ± SD): 94.9 ± 4.95% | % Dose in feces ([3]; N = 6, mean ± SD): 63.9 ± 8.60% | % Dose in feces ([3]; N = 6, mean ± SD, listed as rucaparib): 63.9% and ≈ 64% | Matrix in which identified [4]: P, U, F

Reference: PMC7211193, “Evaluation of absorption, distribution, metabolism, and excretion of [^14C]-rucaparib, a poly(ADP-ribose) polymerase inhibitor, in patients with advanced solid tumors” (Investigational New Drugs, 2019)
